Laboratory results: patent publication US8653304B2, “2,3-dihydro-1H-indene-2-yl urea derivative and pharmaceutical application of same” (Toray Industries, Inc., priority 2009, dated 2014)

Assays:
[1] = tested on: hyperalgesia in Chung model; assay: Hyperalgesia in neuropathic pain model (Chung model), von Frey test; type: in vivo; settings: SD rat, Chung model day 7, oral 100 mg/kg, 90 minutes after administration
Description: The action of Compound (I) on hyperalgesia in pain models was studied. As the pain models, models partially modified from an inflammatory pain model (a carrageenin paw edema pain model) and neuropathic pain models (Bennett model and Chung model) described in documents (Anesth. Analg., 2009, Vol. 108, pp. 1680-1687; Pain, 1988, Vol. 33, pp. 87-107; and Pain, 1992, Vol. 50, pp. 355-363) were used.
The Chung model was produced by completely ligating the L5 and L6 spinal nerves of each Crl:CD (SD) rat (male, 6-week old, Charles River Laboratories Japan, Inc.) with a silk suture (5-0). Seven days after the Chung model was produced, each test compound was orally administered, and von Frey test was performed 90 minutes after the administration. In addition, fifteen days after the Chung model was produced, each test compound was orally administered, and plantar test was performed 90 minutes after the administration. The von Frey test was carried out by measuring the pain threshold (g) of the left footpad (model foot) using Dynamic Plantar Aesthesiometer (37400, Ugo Basile) wherein the maximum pressure was set to 30.0 g and the time required to reach the maximum pressure was set to 40 seconds. The plantar test was carried out by the method described above. […]

[2] = tested on: colonic disorders in DSS-induced chronic colitis model; assay: Colonic disorders in DSS-induced chronic colitis model; type: in vivo; settings: BALB/c mouse, oral 10 mg/kg once Day 27, twice a day Day 28-31; scores Day 28-32
Description: The action of Compound (I) on colonic disorders in inflammatory bowel disease models was studied. As the inflammatory bowel disease models, models partially modified from a TNBS-induced colitis model and a DSS-induced chronic colitis model described in documents (Gastroenterology, 1989, Vol. 96, pp. 29-36 and Am. J. Physiol. Gastrointest. Liver Physiol., 2004, Vol. 287, pp. G115-124) were used.
To each BALB/cCrSlc mouse (female, 9-week old, Japan SLC, Inc.), DSS (Molecular Weight: 36-50 kDa; MP Biomedicals) dissolved in sterile ultrapure water was administered via free drinking for 5 days from the day of the start of the administration via drinking water (this day was considered as Day 0 after the start of the administration via drinking water), and then switched to administration of sterile ultrapure water via free drinking for 5 days. This cycle was repeated again, and DSS was further administered via free drinking for another 7 days to produce the colitis model. As an index of colitis symptoms, stool consistency scores were used. The stool consistency scores were based on the following criteria: normal stool was defined as score 0; loose stool was defined as score 2; and diarrhea was defined as score 4. […]

[3] = tested on: TNFα production; assay: Mouse LPS-induced cytokine production model; type: in vivo; settings: BALB/c mouse, 50 mg/kg oral 30 minutes before LPS 1 mg/kg i.p., serum 60 minutes after LPS
Protocol: The action of Compound (I) on the TNFα production induced by LPS administration in a mouse was studied by a method partially modified from the method described in Journal of Immunology (1992, Vol. 148, pp. 1890-1897).
To each BALB/c mouse (male, 7 to 9-week old, Charles River Laboratories Japan, Inc.), LPS (0111:B4, SIGMA) was intraperitoneally administered at a dose of 1 mg/kg. Sixty minutes after the LPS administration, blood was collected from the abdominal vena cava under anesthesia and centrifuged for 15 minutes at 4° C. to obtain a serum. For the measurement of TNF-α in the serum, ELISA Development System (R&D Systems) was used. Each test compound was dissolved in DMSO (Final Concentration: 2%), and then the obtained solution was dissolved in a 27% aqueous solution of 2-hydroxypropyl-β-cyclodextrin (hereinafter referred to as “HP-β-CD”; Nihon Shokuhin Kako Co., Ltd.). Thirty minutes before the LPS administration, the resulting solution was orally administered at 50 mg/kg.

[4] = Metabolic stability in human CYP (human liver microsomes); type: in vitro ADME; settings: human liver microsomes 0.5 mg/mL, NADPH, 37° C., compound 2 μM
Protocol: Each test compound was mixed at a concentration of 2 μM with a phosphate buffer solution containing Human liver microsomes (Xenotech) in an amount of 0.5 mg/mL. Thereafter, NADPH was added thereto, and the obtained mixture was allowed to react at 37° C. for up to 30 minutes. The reaction was terminated by adding acetonitrile, and then the resultant was centrifuged for 10 minutes at 4° C. to collect a supernatant. The supernatant was pretreated by methanol extraction method, and the concentration of the compound was analyzed by LC/MS/MS (ESI positive mode). The compound remaining rate was calculated from the obtained concentration of the compound.

[5] = tested on: TNFα production; assay: Cytokine production suppressing activity using human whole blood (LPS stimulation); type: cell-based; settings: LPS 200 ng/mL, 37° C., 5 hours
Protocol: Using human whole blood, the inhibitory action of Compound (I) on the TNFα production by LPS stimulation was studied by a method partially modified from the method described in Journal of Medicinal Chemistry (2003, Vol. 46, pp. 4676-4686).
A solution of each test compound in 100% DMSO and human blood were mixed in a 96-well flat-bottom plate. Thereafter, LPS (Final Concentration: 200 ng/mL) was added, and the resulting mixture was allowed to react at 37° C. for 5 hours (the final concentration of DMSO was 0.2%). After the reaction, the resultant was centrifuged for 20 minutes at room temperature, and the supernatant was collected. For the measurement of the TNFα amount in the supernatant, a human cytokine kit (CIS bio international) was used. As a comparative control compound, Comparative Compound 2 was used.

- microsomal CLint at 2 μM [4]: 94 µL/min/mg
- IC50 [5]: 0.508 µM
SMILES: COc1c(NC(=O)N[C@@H]2Cc3ccccc3[C@@H]2O)cc(C(C)(C)C)cc1[C@@H](O)C(F)(F)F [Compound 46b, 1-(5-tert-butyl-2-methoxy-3-((R)-2,2,2-trifluoro-1-hydroxyethyl)phenyl)-3-((1S,2R)-1-hydroxy-2,3-dihydro-1H-indene-2-yl)urea]
- pain threshold, von Frey test [1]: 7.0 ± 0.3 g
- stool consistency score (total) [2]: 5.7±0.8
- Suppression Ratio of TNFα production [3]: 100.0%
